Experimental data reported in patent US8952012B2, “Inhibition of delta-6 desaturase for the treatment of cardiometabolic disease” (Colorado State University Research Foundation, priority 2012, dated 2015).

Legend:
[1] = system: cardiac dysfunction, hypertrophy, fibrosis; assay: Thoracic aortic banding (TAC) or chronic hypertension (HF) model; format: in vivo, mice
From the text: (§1) Mice lacking LDL receptors (LDLR −/−) were similarly maintained on a high fat/sucrose Western diet and treated with SC-26196 in a similar manner as described above. As summarized in FIG. 5, SC-26196 treatment ameliorated hyperlipidemia and atherosclerosis in mice lacking LDL receptors fed the Western diet. The treatment also attenuated cardiac dysfunction, pathologic hypertrophy and fibrosis in mice subjected to thoracic aortic banding (TAC) or chronic hypertension (HF), as summarized in FIG. 6.

delta-6 desaturase (D6D) [2] = molecular target: T1, delta-6 desaturase (D6D) (Mus musculus, UniProt Q9Z0R9); details: cited from earlier work
T1 construct: host or cells: endogenous enzyme of the dosed animal
T1 sequence (Q9Z0R9 1-444): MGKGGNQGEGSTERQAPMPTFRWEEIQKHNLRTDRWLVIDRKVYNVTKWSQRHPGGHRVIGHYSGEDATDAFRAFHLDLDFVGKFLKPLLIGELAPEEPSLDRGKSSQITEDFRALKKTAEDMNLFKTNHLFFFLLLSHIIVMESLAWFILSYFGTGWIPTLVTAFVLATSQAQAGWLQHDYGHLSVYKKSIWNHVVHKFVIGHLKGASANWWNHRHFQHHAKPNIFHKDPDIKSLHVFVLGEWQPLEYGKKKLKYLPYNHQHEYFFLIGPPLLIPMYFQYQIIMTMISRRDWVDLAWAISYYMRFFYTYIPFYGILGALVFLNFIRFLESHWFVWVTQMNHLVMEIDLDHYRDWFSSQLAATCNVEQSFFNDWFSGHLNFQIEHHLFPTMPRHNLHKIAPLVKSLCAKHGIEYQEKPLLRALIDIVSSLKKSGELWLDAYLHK

[3] = cited from earlier work
[4] = molecular target: T2, microsomal triglyceride transfer protein (MTP) (Rattus norvegicus, UniProt D4A1W8); assay: MTP activity, rat liver microsomal extracts; format: biochemical; details: rat liver microsomal extracts at 100 mpk dosing in vivo; relatively weak potency
T2 construct: rat liver microsomal extracts; from tissue; host or cells: rat liver microsomal extracts
T2 sequence (D4A1W8 22-896): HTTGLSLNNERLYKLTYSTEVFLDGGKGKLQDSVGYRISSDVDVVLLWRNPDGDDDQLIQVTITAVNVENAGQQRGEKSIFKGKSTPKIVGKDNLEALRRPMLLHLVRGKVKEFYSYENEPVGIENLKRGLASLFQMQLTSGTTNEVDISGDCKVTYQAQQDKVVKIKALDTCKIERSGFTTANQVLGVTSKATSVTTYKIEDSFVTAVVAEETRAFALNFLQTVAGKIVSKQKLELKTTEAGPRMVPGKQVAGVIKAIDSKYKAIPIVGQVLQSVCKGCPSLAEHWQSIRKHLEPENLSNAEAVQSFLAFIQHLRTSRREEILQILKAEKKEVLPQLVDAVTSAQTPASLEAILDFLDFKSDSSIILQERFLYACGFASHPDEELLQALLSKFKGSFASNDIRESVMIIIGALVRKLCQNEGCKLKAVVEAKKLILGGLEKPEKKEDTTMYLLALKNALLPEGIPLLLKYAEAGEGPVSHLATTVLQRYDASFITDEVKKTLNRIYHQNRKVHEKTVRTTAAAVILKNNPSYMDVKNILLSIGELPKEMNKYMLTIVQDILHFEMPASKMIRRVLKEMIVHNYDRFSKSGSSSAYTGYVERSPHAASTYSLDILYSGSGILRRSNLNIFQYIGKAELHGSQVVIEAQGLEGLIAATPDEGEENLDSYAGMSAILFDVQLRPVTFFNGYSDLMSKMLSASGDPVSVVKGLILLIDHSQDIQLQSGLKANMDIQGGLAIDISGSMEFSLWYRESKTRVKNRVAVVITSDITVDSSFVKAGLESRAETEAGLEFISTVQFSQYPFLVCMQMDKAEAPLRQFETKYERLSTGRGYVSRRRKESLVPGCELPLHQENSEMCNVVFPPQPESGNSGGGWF
T2 sequence (P04785 20-509 partner): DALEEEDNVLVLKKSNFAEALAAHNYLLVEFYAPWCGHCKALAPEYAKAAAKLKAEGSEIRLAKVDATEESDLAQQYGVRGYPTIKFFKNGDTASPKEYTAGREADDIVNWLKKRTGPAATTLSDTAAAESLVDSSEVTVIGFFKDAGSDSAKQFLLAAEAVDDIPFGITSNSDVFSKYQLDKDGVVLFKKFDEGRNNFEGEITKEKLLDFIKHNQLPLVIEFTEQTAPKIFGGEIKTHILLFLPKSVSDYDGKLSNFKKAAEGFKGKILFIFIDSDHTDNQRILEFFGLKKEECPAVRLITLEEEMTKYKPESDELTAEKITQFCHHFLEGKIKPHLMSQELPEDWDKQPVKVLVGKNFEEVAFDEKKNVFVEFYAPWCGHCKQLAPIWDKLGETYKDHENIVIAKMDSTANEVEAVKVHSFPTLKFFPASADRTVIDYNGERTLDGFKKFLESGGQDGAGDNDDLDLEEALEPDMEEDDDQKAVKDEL

delta-6 desaturase (D6D) [5] = details: cited from earlier work
tissue AA/LA ratios = details: cited from earlier work
LDLR -/- mice = assay: LDL receptor-lacking mice on Western diet; format: in vivo
From the text: as §1

ob mice = ob mice on high fat/sucrose Western diet; format: in vivo
Protocol: (§2) To assess the effects of D6D inhibition on structures and processes related to cardiometabolic diseases and disorders, the following experiments were conducted. Animal studies have reported evidence of increased D6D activity in rodent models of CMD (e.g., increase in AA/LA in tissue phospholipids), making them reasonable models for studying the role of D6D in its pathogenesis. To probe the effect of D6D directly, the compound SC-26196, a selective D6D inhibitor was orally administered by admixing the SC-26196 in the food mixtures of the rodent models of CMD at a dosage of about 100 mg/kg/day for four weeks. The rodent models of CMD used in these experiments included a murine model of hyperphagic obesity (leptin-deficient ob mice) and a diet-induced insulin resistance model (normal C57BI/6 mice fed a high-fat “Western” diet) for 8 weeks prior to participation in any experiments.
To assess the interaction of a high-fat Western diet with the effects of D6D inhibition, the following experiment was conducted. The ob mice and the BI/6 mice were maintained on a high fat/sucrose Western diet and part of each group was treated with SC-26196 in a similar manner as described above. The treated and untreated ob and BI/6 mice were compared. FIGS. 4A-4B summarize the results of this experiment.

[6] = molecular target: T3, microsomal triglyceride transfer protein (MTP) (Bos taurus, UniProt P55156); assay: MTP activity, purified bovine MTP; format: biochemical; details: relatively weak potency
T3 sequence (P55156 12-887): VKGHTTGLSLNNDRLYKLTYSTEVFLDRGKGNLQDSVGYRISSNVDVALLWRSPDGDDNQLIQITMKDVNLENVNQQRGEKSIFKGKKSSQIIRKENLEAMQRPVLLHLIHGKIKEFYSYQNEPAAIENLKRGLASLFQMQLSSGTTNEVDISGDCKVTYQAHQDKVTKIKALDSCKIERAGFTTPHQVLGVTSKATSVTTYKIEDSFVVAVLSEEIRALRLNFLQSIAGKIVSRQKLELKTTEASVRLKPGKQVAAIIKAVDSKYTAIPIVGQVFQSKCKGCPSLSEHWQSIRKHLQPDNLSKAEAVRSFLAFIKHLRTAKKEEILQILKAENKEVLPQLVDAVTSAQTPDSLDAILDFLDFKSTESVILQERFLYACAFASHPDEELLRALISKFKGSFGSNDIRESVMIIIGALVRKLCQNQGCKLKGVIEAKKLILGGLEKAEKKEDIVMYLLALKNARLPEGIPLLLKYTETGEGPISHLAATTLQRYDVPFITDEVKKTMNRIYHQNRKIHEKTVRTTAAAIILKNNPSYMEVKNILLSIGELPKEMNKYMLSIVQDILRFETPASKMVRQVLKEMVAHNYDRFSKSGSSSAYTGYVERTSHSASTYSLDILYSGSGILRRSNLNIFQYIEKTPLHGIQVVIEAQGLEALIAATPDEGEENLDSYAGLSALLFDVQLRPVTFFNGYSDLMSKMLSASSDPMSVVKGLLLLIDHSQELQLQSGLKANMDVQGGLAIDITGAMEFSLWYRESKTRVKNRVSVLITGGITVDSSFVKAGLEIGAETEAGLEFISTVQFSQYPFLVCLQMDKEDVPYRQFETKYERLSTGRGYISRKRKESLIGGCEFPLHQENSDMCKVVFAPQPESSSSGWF
T3 sequence (P05307 21-510 partner): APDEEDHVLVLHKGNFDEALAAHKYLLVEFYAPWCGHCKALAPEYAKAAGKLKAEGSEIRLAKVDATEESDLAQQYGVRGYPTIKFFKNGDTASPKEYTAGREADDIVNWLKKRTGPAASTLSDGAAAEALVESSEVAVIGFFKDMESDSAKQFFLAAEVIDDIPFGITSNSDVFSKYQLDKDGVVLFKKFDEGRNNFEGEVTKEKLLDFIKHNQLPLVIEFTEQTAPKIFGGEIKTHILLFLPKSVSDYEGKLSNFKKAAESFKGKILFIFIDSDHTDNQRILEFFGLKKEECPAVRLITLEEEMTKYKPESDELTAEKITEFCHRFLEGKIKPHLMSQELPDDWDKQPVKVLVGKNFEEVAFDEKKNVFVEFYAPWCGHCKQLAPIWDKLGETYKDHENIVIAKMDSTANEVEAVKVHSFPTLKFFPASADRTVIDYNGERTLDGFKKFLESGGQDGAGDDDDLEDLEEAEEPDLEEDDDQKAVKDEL

[7] = Liver toxicity on chronic administration; format: in vivo; details: 100 mpk/d for 4 wks, all animal models tested
leptin-deficient ob mice = assay: ob/ob mice (hyperphagic obesity) on normal diet treated 4 weeks; format: in vivo
Protocol: as §2
Initially, the effects of D6D inhibition in conjunction with a normal diet were assessed. 4 mo old ob/ob mice were administered the selective D6D inhibitor SC-26196 (100 mg/kg/d mixed in chow) for 4 weeks (ob/ob+D6D−; n=12). The ob mice treated with SC-26196 for four weeks (ob+SC) were compared to untreated ob mice (ob) and normal C57BI/6 mice (BI/6). FIGS. 3A-C summarizes the results of this comparison. […] As summarized in FIG. 7, treatment with SC-26196 normalized responses to a glucose tolerance test, decreased serum insulin, and reduced hepatic macrophage (MΦ) content and ser-307 phosphorylation of IRS-1, the canonical cellular mechanism of hepatic insulin resistance resulting from inflammatory signaling. As summarized in FIGS. 8A and 8B, treatment with SC-26196 reduced the hepatic PC/PE ratio in the treated ob mice. FIG. 9 illustrates that SC-26196 treatment normalized the cardiac phospholipid/cardiolipin composition in the treated ob mice.

[8] = 100 mpk/d mixed in mouse chow, 4 weeks
[9] = ob mice, normal diet, 100 mg/kg/d
[10] = ob/ob mice, cardiac, 100 mg/kg/d, vs lean C57BI/6

N#CC(CCCN1CCN(/N=C/c2cccnc2)CC1)(c1ccccc1)c1ccccc1 [SC-26196, (E)-2,2-Diphenyl-5-{4-[(pyridin-3-yl-methylene)amino]piperazin-1-yl}pentanenitrile]
cardiac dysfunction [1]: attenuated
fibrosis [1]: attenuated
pathologic hypertrophy [1]: attenuated
inhibition of D6D enzymatic activity in vivo (delta-6 desaturase (D6D) [2]; 100 mg/kg b.i.d., i.g. over a 24 hr period): about 65%
oral activity (delta-6 desaturase (D6D) [2]; at 100 mpk): oral activity
Peak plasma levels ([3]; 100 mpk ig dosing): 2 µM
half-life ([3]; 100 mpk ig dosing): 1.2 h
bioavailability ([3]; 100 mpk ig, based on AUC calculations): about 60%
MTP activity [4]: inhibited MTP activity
selectivity for D6D over other desaturase enzymes (delta-6 desaturase (D6D) [5]): potent selectivity
IC50 (delta-6 desaturase (D6D) [5]; in vitro): 200 nM
effect in a model of acute inflammation (tissue AA/LA ratios; [8]): protective effects
tissue AA/LA ratios (tissue AA/LA ratios; [8]): reduced
reversing elevations of tissue AA/LA associated with acute inflammation (tissue AA/LA ratios; lower doses, 50 and 75 mpk/d, 4 wks): ineffective
atherosclerosis (LDLR -/- mice): ameliorated
hyperlipidemia (LDLR -/- mice): ameliorated
fasting blood glucose (ob mice): reduced
responses to a glucose tolerance test (ob mice): normalized
serum insulin levels (ob mice): normalized 8-fold elevations
MTP activity [6]: inhibited MTP activity
hepatomegaly [7]: significant hepatomegaly
ser-307 phosphorylation of IRS-1 (leptin-deficient ob mice; ob mice, liver, normal diet, 100 mg/kg/d): reduced
cardiac oxidative stress (leptin-deficient ob mice; [9]): reduced
cardiac phospholipid/cardiolipin composition (leptin-deficient ob mice; [9]): normalized
eicosanoid species in heart tissue (leptin-deficient ob mice; [9]): abolished significant increases
eicosanoid species in serum (leptin-deficient ob mice; [9]): abolished significant increases
hepatic PC/PE ratio (leptin-deficient ob mice; [9]): reduced
hepatic macrophage content (leptin-deficient ob mice; [9]): reduced
responses to a glucose tolerance test (leptin-deficient ob mice; [9]): normalized
serum insulin (leptin-deficient ob mice; [9]): decreased
phospholipid AA/LA ratio of serum, liver, heart and muscle tissue (leptin-deficient ob mice; ob mice, normal diet, 100 mg/kg/d in chow): reversed significant elevations
cardiac cardiolipin profile (leptin-deficient ob mice; ob/ob mice, 100 mg/kg/d in chow, vs lean C57BI/6): to levels similar to those in lean age-matched control mice
membrane peroxidizability index (leptin-deficient ob mice; [10]): to levels similar to those in lean age-matched control mice
phospholipid D6D activity index (20:4/18:2 ratio) (leptin-deficient ob mice; [10]): to levels similar to those in lean age-matched control mice
phospholipid DHA content (leptin-deficient ob mice; [10]): to levels similar to those in lean age-matched control mice
